The results in this text go back to US9745310B2 (SK BIOPHARMACEUTICALS CO., LTD., priority 2015, dated 2017).

By EC50 is commonly meant the concentration that produces a half-maximal response.

Chain of human mGluR5 receptor (P41594 21-1212): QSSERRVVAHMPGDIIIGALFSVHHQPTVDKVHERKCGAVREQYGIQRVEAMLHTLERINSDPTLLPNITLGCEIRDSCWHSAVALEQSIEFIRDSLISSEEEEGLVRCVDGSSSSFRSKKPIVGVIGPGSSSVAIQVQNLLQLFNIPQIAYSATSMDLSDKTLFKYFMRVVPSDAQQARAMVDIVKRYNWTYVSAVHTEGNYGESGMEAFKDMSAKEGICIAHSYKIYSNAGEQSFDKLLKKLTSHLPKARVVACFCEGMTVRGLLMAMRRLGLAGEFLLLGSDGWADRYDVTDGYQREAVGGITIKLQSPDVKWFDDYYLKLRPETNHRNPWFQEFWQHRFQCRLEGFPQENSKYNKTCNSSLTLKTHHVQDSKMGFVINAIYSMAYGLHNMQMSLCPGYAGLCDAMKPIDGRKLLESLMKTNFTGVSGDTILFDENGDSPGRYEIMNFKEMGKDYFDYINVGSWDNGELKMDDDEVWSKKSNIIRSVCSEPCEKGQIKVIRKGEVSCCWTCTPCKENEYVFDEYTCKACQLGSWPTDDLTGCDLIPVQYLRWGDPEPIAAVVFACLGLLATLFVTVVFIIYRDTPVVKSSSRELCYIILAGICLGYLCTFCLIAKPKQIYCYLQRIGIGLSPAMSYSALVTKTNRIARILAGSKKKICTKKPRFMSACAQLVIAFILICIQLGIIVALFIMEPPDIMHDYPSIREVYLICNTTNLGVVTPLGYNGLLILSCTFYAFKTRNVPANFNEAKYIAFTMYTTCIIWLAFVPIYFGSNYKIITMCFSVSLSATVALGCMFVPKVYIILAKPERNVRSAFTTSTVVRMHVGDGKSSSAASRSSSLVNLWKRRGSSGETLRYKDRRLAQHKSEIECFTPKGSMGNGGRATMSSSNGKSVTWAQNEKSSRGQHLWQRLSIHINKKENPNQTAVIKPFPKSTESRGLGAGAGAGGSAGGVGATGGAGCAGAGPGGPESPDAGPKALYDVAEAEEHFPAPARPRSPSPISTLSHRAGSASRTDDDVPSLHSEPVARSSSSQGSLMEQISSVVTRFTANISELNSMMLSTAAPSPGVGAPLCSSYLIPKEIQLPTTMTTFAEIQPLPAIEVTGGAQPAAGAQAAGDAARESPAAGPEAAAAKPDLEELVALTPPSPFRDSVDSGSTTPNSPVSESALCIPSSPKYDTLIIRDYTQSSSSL

This experiment has as its target human mGluR5 receptor (Homo sapiens (Human), UniProt P41594). Nature of the experiment: Calcium influx assay based on fluorescence (mGluR5 PAM activity). Particulars: human mGluR5 receptor-overexpressed HEK293 cell line; L-glutamate EC20; Fluo-4, FLIPR. Summed up: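 HEK293 cells overexpressing human mGluR5, loaded 1 h with Fluo-4 at 37° C. Compounds (10 μM to 10 nM final, 0.1–0.2% DMSO) added with an EC20 concentration of L-glutamate, and Ca2+ response read by FLIPR at room temperature. Activity scaled as 0% for EC20 glutamate alone and 100% for glutamate maximum.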
Turning to `Fc1ccc(-c2cnc3nc(COc4ccccc4)cn3c2)cc1` [Example 8, 6-(4-fluorophenyl)-2-phenoxymethylimidazo[1,2-a]pyrimidine], the EC50 lay within 100 to 500 nM. The value for `Fc1ccc(-c2cnc3nc(COc4ccccn4)cn3c2)cc1` [Example 102, 6-(4-fluorophenyl)-2-(pyridin-2-yloxymethyl)imidazo[1,2-a]pyrimidine] was 100 to 500 nM; that for `CN(C)c1ccccc1-c1cnc2nc(COc3ccccc3)cn2c1` [Example 14, 6-(2-dimethylaminophenyl)-2-phenoxymethylimidazo[1,2-a]pyrimidine] was 100 to 500 nM; that for `Nc1cc(-c2cnc3nc(COc4ccccc4)cn3c2)ccc1F` [Example 12, 6-(3-amino-4-fluorophenyl)-2-phenoxymethylimidazo[1,2-a]pyrimidine] was 500 to 1000 nM.

For the compound `O=Cc1ccc(-c2cnc3nc(COc4ccccn4)cn3c2)c(C(F)(F)F)c1` [Example 144, 4-[2-(2-pyridyloxymethyl)imidazo[1,2-a]pyrimidin-6-yl]-3-(trifluoromethyl)benzaldehyde], the 50% effective concentration (EC50) lay in the range of 500 to 1000 nM.

On to `Oc1cc(F)ccc1-c1cnc2nc(COc3cncc(F)c3)cn2c1` [Example 156, 6-(4-fluoro-2-hydroxyphenyl)-2-(5-fluoropyridin-3-yloxymethyl)imidazo[1,2-a]pyrimidine], for which the EC50 fell in the range of 100 to 500 nM. The same measure for `Cc1ccc(-c2cnc3nc(COc4ccc(F)cc4)cn3c2)cn1` [Example 92, 2-[(4-fluorophenoxy)methyl]-6-(6-methyl-3-pyridyl)imidazo[1,2-a]pyrimidine]: 100 to 500 nM; for `COc1cncc(-c2cnc3nc(COc4ccc(F)cc4)cn3c2)c1` [Example 89, 2-[(4-fluorophenoxy)methyl]-6-(5-methoxy-3-pyridyl)imidazo[1,2-a]pyrimidine]: 500 to 1000 nM.

As to `Fc1cccc(OCc2cn3cc(-c4ccc(F)cc4F)cnc3n2)c1` [Example 41, 6-(2,4-difluorophenyl)-2-(3-fluorophenoxymethyl)imidazo[1,2-a]pyrimidine], the EC50 lay in the range of 100 to 500 nM.

Take `COc1cc(F)ccc1-c1cnc2nc(COc3cccc(F)c3)cn2c1` [Example 42, 6-(4-fluoro-2-methoxyphenyl)-2-(3-fluorophenoxymethyl)imidazo[1,2-a]pyrimidine]: the EC50 fell in the range of 500 to 1000 nM. With `Cc1cc(F)ccc1-c1cnc2nc(COc3cccc(F)n3)cn2n1` [Example 191], the EC50 was 500 to 1000 nM. The same measure for `Fc1ccc(-c2cnc3nc(COc4ccccc4)cn3c2)c(F)n1` [Example 33, 6-(2,6-difluoropyridin-3-yl)-2-phenoxymethylimidazo[1,2-a]pyrimidine]: 100 to 500 nM; for `Fc1ccc(-c2cnc3nc(COc4ccccc4)cn3c2)cn1` [Example 31, 6-(6-fluoropyridin-3-yl)-2-phenoxymethylimidazo[1,2-a]pyrimidine]: 100 to 500 nM. In the case of `Nc1ccccc1-c1cnc2nc(COc3ccc(F)cc3)cn2c1` [Example 66, 2-[2-[(4-fluorophenoxy)methyl]imidazo[1,2-a]pyrimidin-6-yl]aniline], the EC50 lay within 100 to 500 nM. The value for `Nc1cc(F)ccc1-c1cnc2nc(COc3ccnc(F)c3)cn2c1` [Example 176, 5-fluoro-2-[2-[(2-fluoro-4-pyridyl)oxymethyl]imidazo[1,2-a]pyrimidin-6-yl]aniline] was 100 to 500 nM. Take `Fc1cc(OCc2cn3cc(-c4ccccc4F)cnc3n2)ccn1` [Example 166, 6-(2-fluorophenyl)-2-(2-fluoropyridin-4-yloxymethyl)imidazo[1,2-a]pyrimidine]: the EC50 is 100 to 500 nM. With `Nc1cc(F)ccc1-c1cnc2nc(COc3ccc(F)cc3)cn2c1` [Example 77, 5-fluoro-2-[2-[(4-fluorophenoxy)methyl]imidazo[1,2-a]pyrimidin-6-yl]aniline], the EC50 fell in the range of 100 to 500 nM. For the compound `FC(F)(F)c1ccc(-c2cnc3nc(COc4ccccn4)cn3c2)cn1` [Example 130, 2-(2-pyridyloxymethyl)-6-[6-(trifluoromethyl)-3-pyridyl]imidazo[1,2-a]pyrimidine], the EC50 lay within 100 to 500 nM. As to `NC(=O)OCc1cc(F)ccc1-c1cnc2nc(COc3ccccc3)cn2c1` [Example 194, [5-fluoro-2-[2-(phenoxymethyl)imidazo[1,2-a]pyrimidin-6-yl]phenyl]methyl carbamate], the EC50 was in the range of 100 to 500 nM.

For `Fc1ccc(-c2cnc3nc(COc4ccccc4)cn3c2)cc1F` [Example 19, 6-(3,4-difluorophenyl)-2-phenoxymethylimidazo[1,2-a]pyrimidine], the EC50 fell in the range of 500 to 1000 nM. Regarding `CC(=O)OCc1cc(F)ccc1-c1cnc2nc(COc3ccccn3)cn2c1` [Example 196, [5-fluoro-2-[2-(2-pyridyloxymethyl)imidazo[1,2-a]pyrimidin-6-yl]phenyl]methyl acetate], the EC50 lay in the range of 100 to 500 nM. The value for `COc1cc(Cl)ccc1-c1cnc2nc(COc3ccc(F)cc3)cn2c1` [Example 69, 6-(4-chloro-2-methoxy-phenyl)-2-[(4-fluorophenoxy)methyl]imidazo[1,2-a]pyrimidine] was 100 to 500 nM; that for `Fc1ccc(-c2cnc3nc(COc4ccnc(F)c4)cn3c2)cc1` [Example 164, 6-(4-fluorophenyl)-2-(2-fluoropyridin-4-yloxymethyl)imidazo[1,2-a]pyrimidine] was 100 to 500 nM. As to `Cc1ccc(N)cc1-c1cnc2nc(COc3ccccc3)cn2c1` [Example 11, 6-(3-amino-6-methylphenyl)-2-phenoxymethylimidazo[1,2-a]pyrimidine], the EC50 lay in the range of 100 to 500 nM. The value for `Nc1cc(Cl)ccc1-c1cnc2nc(COc3ccc(F)cc3)cn2c1` [Example 75, 5-chloro-2-[2-[(4-fluorophenoxy)methyl]imidazo[1,2-a]pyrimidin-6-yl]aniline] was 100 to 500 nM; that for `Oc1ccccc1-c1cnc2nc(COc3ccccc3)cn2c1` [Example 16, 6-(2-hydroxyphenyl)-2-phenoxymethylimidazo[1,2-a]pyrimidine] was 500 to 1000 nM; that for `Oc1ccc(-c2cnc3nc(COc4ccc(F)cc4)cn3c2)cn1` [Example 90, 5-[2-[(4-fluorophenoxy)methyl]imidazo[1,2-a]pyrimidin-6-yl]pyridin-2-ol] was 100 to 500 nM.

With `Fc1ccc(-c2cnc3nc(COc4ccccn4)cn3c2)c(F)c1` [Example 105, 6-(2,4-difluorophenyl)-2-(pyridin-2-yloxymethyl)imidazo[1,2-a]pyrimidine], the 50% effective concentration (EC50) was in the range of 100 to 500 nM.

For the compound `Fc1ccc(-c2cnc3nc(COc4ccc(F)cn4)cn3c2)cc1` [Example 129, 6-(4-fluorophenyl)-2-[(5-fluoro-2-pyridyl)oxymethyl)imidazo[1,2-a]pyrimidine], the EC50 lay within 500 to 1000 nM. For `Fc1ccc(-c2cnc3nc(COc4cccc(F)c4)cn3c2)nc1` [Example 93, 2-[(3-fluorophenoxy)methyl]-6-(5-fluoro-2-pyridyl)imidazo[1,2-a]pyrimidine], the EC50 is 100 to 500 nM. The value for `COc1cc(-c2cnc3nc(COc4ccc(F)cc4)cn3c2)ccn1` [Example 99, 2-[(4-fluorophenoxy)methyl]-6-(2-methoxy-4-pyridyl)imidazo[1,2-a]pyrimidine] was 500 to 1000 nM; that for `Cc1ccncc1-c1cnc2nc(COc3ccc(F)cc3)cn2c1` [Example 78, 2-[(4-fluorophenoxy)methyl]-6-(4-methyl-3-pyridyl)imidazo[1,2-a]pyrimidine] was 100 to 500 nM; that for `COc1cc(Cl)ccc1-c1cnc2nc(COc3ccccc3)cn2c1` [Example 22, 6-(4-chloro-2-methoxyphenyl)-2-phenoxymethylimidazo[1,2-a]pyrimidine] was 500 to 1000 nM. `FCc1cc(F)ccc1-c1cnc2nc(COc3ccc(F)cc3)cn2c1` [Example 199, 6-[4-fluoro-2-(fluoromethyl)phenyl]-2-[(4-fluorophenoxy)methyl]imidazo[1,2-a]pyrimidine]: the concentration for a half-maximal effect (EC50) is 100 to 500 nM. The same measure for `Fc1ccc(-c2cnc3nc(COc4ccccc4)cn3c2)cc1Cl` [Example 13, 6-(3-chloro-4-fluorophenyl)-2-phenoxymethylimidazo[1,2-a]pyrimidine]: 500 to 1000 nM; for `Nc1cc(-c2cnc3nc(COc4ccc(F)cc4)cn3c2)ccc1F` [Example 70, 2-fluoro-5-[2-[(4-fluorophenoxy)methyl]imidazo[1,2-a]pyrimidin-6-yl]aniline]: 100 to 500 nM; for `NC(=O)OCc1cc(F)ccc1-c1cnc2nc(COc3ccccn3)cn2c1` [Example 195, [5-fluoro-2-[2-(2-pyridyloxymethyl)imidazo[1,2-a]pyrimidin-6-yl]phenyl]methyl carbamate]: 100 to 500 nM. The same measure for `COc1ccc(-c2cnc3nc(COc4ccc(F)cc4)cn3c2)nc1` [Example 86, 2-[(4-fluorophenoxy)methyl]-6-(5-methoxy-2-pyridyl)imidazo[1,2-a]pyrimidine]: 100 to 500 nM.
